Results reported in patent publication US10266564B2, “Cationic lipid cordiarimide hybrid compounds and a process for preparation thereof” (COUNCIL OF SCIENTIFIC & INDUSTRIAL RESEARCH, priority 2014, dated 2019).
Entries after “also recorded” stand apart in the source; their conditions may differ.

Experiments:
HepG2 cells [1] = assay: Cell cycle analysis, PI staining by flow cytometry; assay type: cell-based, human; conditions: HepG2, 24 h, 5, 10, and 20 mM as printed
Description: For cell cycle distribution studies after treatment with different molar concentrations of 8i and 8k, HepG2 cells were fixed overnight in 70% ethanol, rehydrated in PBS with ribonuclease A (100 μg/ml) and Triton-X (1%) for 30 min at room temperature then PI (at 50 μg/ml) was added and incubated in the dark for 30 min and analyzed with a flow cytometer. Experiments were repeated two times independently.

ligase IIIβ = target: T1, ligase IIIβ (Homo sapiens, UniProt P49916); assay: Ligation assay, DNA ligase IIIβ; assay type: biochemical
T1 sequence (P49916 43-949 isoform P49916-2 limits assumed): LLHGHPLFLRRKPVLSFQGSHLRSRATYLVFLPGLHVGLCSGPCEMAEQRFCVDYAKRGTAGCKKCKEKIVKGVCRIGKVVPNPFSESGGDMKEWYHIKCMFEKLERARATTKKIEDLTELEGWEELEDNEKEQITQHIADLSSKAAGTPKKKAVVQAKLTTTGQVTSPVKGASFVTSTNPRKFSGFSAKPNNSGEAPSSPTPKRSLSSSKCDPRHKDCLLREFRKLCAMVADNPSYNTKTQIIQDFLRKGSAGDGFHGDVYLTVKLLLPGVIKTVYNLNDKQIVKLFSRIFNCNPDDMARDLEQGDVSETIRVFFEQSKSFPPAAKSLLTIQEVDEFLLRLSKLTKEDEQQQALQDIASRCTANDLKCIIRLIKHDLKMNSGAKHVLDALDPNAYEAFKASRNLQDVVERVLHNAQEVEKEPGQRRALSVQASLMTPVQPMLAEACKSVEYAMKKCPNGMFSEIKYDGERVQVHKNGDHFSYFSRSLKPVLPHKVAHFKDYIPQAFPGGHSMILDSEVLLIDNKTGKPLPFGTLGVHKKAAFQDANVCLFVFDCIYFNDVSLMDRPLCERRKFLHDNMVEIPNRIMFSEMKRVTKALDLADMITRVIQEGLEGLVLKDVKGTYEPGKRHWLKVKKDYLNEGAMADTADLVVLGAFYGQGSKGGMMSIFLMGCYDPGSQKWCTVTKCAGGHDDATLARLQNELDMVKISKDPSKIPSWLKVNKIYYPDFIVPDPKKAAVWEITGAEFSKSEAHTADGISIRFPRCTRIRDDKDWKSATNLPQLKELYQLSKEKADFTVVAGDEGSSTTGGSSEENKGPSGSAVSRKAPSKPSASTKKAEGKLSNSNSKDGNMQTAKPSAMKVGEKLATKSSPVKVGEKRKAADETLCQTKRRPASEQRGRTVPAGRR
Description: The ligation assay was done strictly following the assay protocol described in Xi Chen et. al, Cancer Res 2008; 68(9):3169-3177. The DNA molecules 52 mer (5′-3′), 28-mer (5′-3′) and 34-mer (5′-3′) were used to construct a double stranded nicked substrate for the ligase enzyme (FIG. 4). The 34-mer oligo was labelled with 32P-AMP to form a substrate for ligase and to form a ligase-AMP intermediate. During ligation, the ligase would transfer the AMP to the nick forming a phosphodiester bond and seal the nick. The ligated DNA molecule would be larger in size and run higher up on a 7% Urea-containing denaturing acrylamide gel. If an inhibitor is added to the reaction mixture prior to the addition of ligase, this would lead to an inhibition of ligation and a corresponding loss of labelled ligated product in the gel. We would then be able to calculate the percentage of inhibition of ligation by estimating the amount of ligated product in the lane with no inhibitor and comparing it with the lanes containing different inhibitor molecules or with the same inhibitor molecule at different concentrations.

hLig1-DNA complex = hLig1-DNA complex (Homo sapiens, UniProt P18858); assay: Electrophoretic mobility shift assay (EMSA); assay type: binding; conditions: 25, 50 and 100 μM; hLig1 10 pmol, DNA 1 pmol
Description: EMSA was performed as described in Xi Chen et. al, Cancer Res 2008; 68(9):3169-3177 with some modifications, for the interaction study between 8k and hLig1. Of the three oligos used to construct the DNA substrate, one was a 5′-FAM labelled 27-mer oligo with a dideoxy modified 3′ end. Other two oligos of 25-mer and 52-mer were used. These oligos were annealed to obtain a non-ligatable nicked DNA substrate which the ligase enzyme can recognize and bind to, but cannot ligate or release from it. […] Lanes 3-5 (FIG. 6A) contain increasing concentrations of the inhibitor. A shift in signal is seen is lanes 3-5. This shift in the ligase-DNA complex can occur only if the inhibitor binds to the complex of hLig1+DNA and increases the size of the complex. If inhibitor binds to ligase alone, then we would expect fewer signals in lanes 3-5. But since we see an increase in intensity of signal as well as a super-shift in the signal, we can reliably say that the inhibitor binds to the DNA-ligase complex and not separately to either DNA or ligase.

caspase-3 in HepG2 cells = assay: Caspase-3 colorimetric activation assay; assay type: cell-based, human; conditions: HepG2, 5 and 10 μM, 24 h
Description: The activity of caspase-3 was determined using a caspase-3 colorimetric assay kit (Sigma Aldrich) according to the manufacturer's protocol. Briefly, HepG2 cells (1×10^6 cells/well) were treated with 5 and 10 μM of 8i and 8k for 24 h. The cells were harvested and lysed by addition of lysis buffer. Cell lysates were mixed with colorimetric substrate (Ac-DEVD-pNA) and incubated at 37° C. in the dark for 4 h. The absorbance was measured at 405 nm in an ELISA reader. Caspase-3 activity was expressed as the change of the activity compared to the control (FIG. 3).

HepG2 cells [2] = assay: Apoptosis, annexin V/PI staining by flow cytometry; assay type: cell-based, human; conditions: HepG2, 24 h
Description: Quantitation of apoptotic cells by annexin V staining was carried out according to the manufacturer's instructions. Briefly, cells (5×10^5 cells/well) were seeded in 6 well plates and treated with 5 μM of 8h-8k for 24 h. After incubation, cells were washed with PBS and stained with 1.25 μL of annexin V-FITC and 10 μL of media binding reagent and incubated for 20 min. After that 10 μL of PI was added and samples were analyzed using a flow cytometer. Annexin V-FITC was analyzed using excitation and emission settings of 488 nm and 535 nm (FL-1 channel); PI, 488 nm and 610 nm (FL-2 channel). Debris and clumps were gated out using forward and orthogonal light scatter. Each experiment was repeated two times independently. Results are illustrated in FIG. 1 and the percentage of Annexin-V/PI positive cells increased gradually from 20 to 70% after 24 h of treatment (FIG. 1).

hLig1-DNA complex, sequence (P18858 whole entry, one chain of several): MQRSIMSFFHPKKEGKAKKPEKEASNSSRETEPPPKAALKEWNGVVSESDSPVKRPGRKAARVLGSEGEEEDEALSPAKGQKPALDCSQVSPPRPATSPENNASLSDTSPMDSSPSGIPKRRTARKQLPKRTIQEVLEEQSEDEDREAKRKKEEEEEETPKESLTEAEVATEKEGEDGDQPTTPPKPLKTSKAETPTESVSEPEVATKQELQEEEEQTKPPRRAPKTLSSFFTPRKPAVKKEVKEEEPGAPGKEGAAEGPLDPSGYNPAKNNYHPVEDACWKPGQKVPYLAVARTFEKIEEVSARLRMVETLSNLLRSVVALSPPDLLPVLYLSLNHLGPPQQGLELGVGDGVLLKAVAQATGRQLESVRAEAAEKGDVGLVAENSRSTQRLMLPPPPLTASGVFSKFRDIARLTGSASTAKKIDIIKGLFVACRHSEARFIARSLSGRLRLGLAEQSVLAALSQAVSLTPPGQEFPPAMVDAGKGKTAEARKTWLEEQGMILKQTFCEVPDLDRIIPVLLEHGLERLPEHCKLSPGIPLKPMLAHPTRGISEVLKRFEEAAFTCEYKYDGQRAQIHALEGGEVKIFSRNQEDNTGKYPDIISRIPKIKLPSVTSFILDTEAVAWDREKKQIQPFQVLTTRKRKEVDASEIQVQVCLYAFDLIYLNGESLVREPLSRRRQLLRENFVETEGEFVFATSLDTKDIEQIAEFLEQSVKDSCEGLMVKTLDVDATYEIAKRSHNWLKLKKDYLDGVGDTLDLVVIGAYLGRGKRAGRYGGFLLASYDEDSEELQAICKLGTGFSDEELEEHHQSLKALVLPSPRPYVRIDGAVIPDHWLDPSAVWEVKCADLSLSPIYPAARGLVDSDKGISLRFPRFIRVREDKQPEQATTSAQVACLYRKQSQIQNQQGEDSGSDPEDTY

CCCCCCCCCCCC[N+](C)(CCCCCCCCCCCC)CC(=O)NC1CCC(=O)N(CC(=O)c2ccccc2)C1=O (stereo not drawn) [Compound 8k, {[2,6-Dioxo-1-(2-oxo-2-phenyl-ethyl)-piperidin-3-ylcarbamoyl]-methyl}-Didodecyl-methyl-ammonium iodide]
effect on cell cycle progression (HepG2 cells [1]): significant accumulation of cells in G0/G1 phase; also recorded: blocked the cell cycle in G0/G1 phase
inhibition at 5 µM (ligase IIIβ; 5 μM): < 50%
ligase III inhibition (ligase IIIβ; at concentrations that kill HepG2 cells): 30%
mode of inhibition by EMSA (hLig1-DNA complex): un-competitive mode of inhibition
caspase-3 activation (caspase-3 in HepG2 cells): activated the caspase-3 in HepG2 cells dose dependently; also recorded: activated the casepase-3 in HepG2 cells dose dependently
apoptosis induction (in words) (HepG2 cells [2]): induced significant amount of apoptosis
